Test results as given in ChEMBL document CHEMBL5360576, “New and promising type of leukotriene B4 (LTB4) antagonists based on the 1,4-benzodioxine structure” (Eur J Med Chem, 2023).

Key:
[1] = target: T1, Leukotriene B4 receptor (Homo sapiens, UniProt Q9NPC1+Q15722); test: Antagonist activity against LTB4 receptor in human U-937 cells at 0.00001 M incubated for 40 mins by liquid scintillation counting method; type: cell-based; settings: dose 10 µM
[2] = target: T1, Leukotriene B4 receptor; test: Antagonist activity against LTB4 receptor in human U-937 cells at 0.0000001 M incubated for 40 mins by liquid scintillation counting method; type: cell-based; settings: dose 100 nM
[3] = system: Rattus norvegicus; test: Antinflammatory activity against carrageenan induced pedal edema rat model assessed as average pedal volume at 10 mg/kg,po administration and measured after 1 hr (reference value: 1.82 +/- 0.04 mL); type: functional
[4] = system: Rattus norvegicus; test: Antinflammatory activity against carrageenan induced pedal edema rat model assessed as average pedal volume at 10 mg/kg,po administration and measured after 2 hrs (reference value: 2.2 +/- 0.1 mL); type: functional
[5] = system: Rattus norvegicus; test: Antinflammatory activity against carrageenan induced pedal edema rat model assessed as average pedal volume at 10 mg/kg,po administration and measured after 4 hrs (reference value: 2.41 +/- 0.05 mL); type: functional
[6] = system: Rattus norvegicus; test: Antinflammatory activity against carrageenan induced pedal edema rat model assessed as inflammation at 10 mg/kg,po administration and measured after 1 hr (reference value: 20.17 +/- 2.8 %); type: functional
[7] = system: Rattus norvegicus; test: Antinflammatory activity against carrageenan induced pedal edema rat model assessed as inflammation at 10 mg/kg,po administration and measured after 2 hrs (reference value: 45.39 +/- 6.82 %); type: functional
[8] = system: Rattus norvegicus; test: Antinflammatory activity against carrageenan induced pedal edema rat model assessed as inflammation at 10 mg/kg,po administration and measured after 4 hrs (reference value: 58.75 +/- 3.5 %); type: functional
[9] = system: Rattus norvegicus; test: Antinflammatory activity against carrageenan induced pedal edema rat model assessed as reduction in edema at 10 mg/kg,po administration and measured after 1 hr relative to control; type: functional; set-up: scale not given: the % may be the effect or the level left
[10] = system: Rattus norvegicus; test: Antinflammatory activity against carrageenan induced pedal edema rat model assessed as reduction in edema at 10 mg/kg,po administration and measured after 2 hrs relative to control; type: functional; set-up: scale not given: the % may be the effect or the level left
[11] = system: Rattus norvegicus; test: Antinflammatory activity against carrageenan induced pedal edema rat model assessed as reduction in edema at 10 mg/kg,po administration and measured after 4 hrs relative to control; type: functional; set-up: scale not given: the % may be the effect or the level left
[12] = target: T1, Leukotriene B4 receptor; test: Antagonist activity against LTB4 receptor in human U-937 cells incubated for 40 mins by liquid scintillation counting method; type: cell-based
[13] = system: Rattus norvegicus; test: Antinflammatory activity against carrageenan induced pedal edema rat model assessed as average pedal volume at 30 mg/kg,po administration and measured after 1 hr (reference value: 1.82 +/- 0.04 mL); type: functional
[14] = system: Rattus norvegicus; test: Antinflammatory activity against carrageenan induced pedal edema rat model assessed as average pedal volume at 30 mg/kg,po administration and measured after 2 hrs (reference value: 2.2 +/- 0.1 mL); type: functional
[15] = system: Rattus norvegicus; test: Antinflammatory activity against carrageenan induced pedal edema rat model assessed as average pedal volume at 30 mg/kg,po administration and measured after 4 hrs (reference value: 2.41 +/- 0.05 mL); type: functional
[16] = system: Rattus norvegicus; test: Antinflammatory activity against carrageenan induced pedal edema rat model assessed as inflammation at 30 mg/kg,po administration and measured after 1 hr (reference value: 20.17 +/- 2.8 %); type: functional
[17] = system: Rattus norvegicus; test: Antinflammatory activity against carrageenan induced pedal edema rat model assessed as inflammation at 30 mg/kg,po administration and measured after 2 hrs (reference value: 45.39 +/- 6.82 %); type: functional
[18] = system: Rattus norvegicus; test: Antinflammatory activity against carrageenan induced pedal edema rat model assessed as inflammation at 30 mg/kg,po administration and measured after 4 hrs (reference value: 58.75 +/- 3.5 %); type: functional
[19] = system: Rattus norvegicus; test: Antinflammatory activity against carrageenan induced pedal edema rat model assessed as reduction in edema at 30 mg/kg,po administration and measured after 1 hr relative to control; type: functional; set-up: scale not given: the % may be the effect or the level left
[20] = system: Rattus norvegicus; test: Antinflammatory activity against carrageenan induced pedal edema rat model assessed as reduction in edema at 30 mg/kg,po administration and measured after 2 hrs relative to control; type: functional; set-up: scale not given: the % may be the effect or the level left
[21] = system: Rattus norvegicus; test: Antinflammatory activity against carrageenan induced pedal edema rat model assessed as reduction in edema at 30 mg/kg,po administration and measured after 4 hrs relative to control; type: functional; set-up: scale not given: the % may be the effect or the level left
[22] = target: T1, Leukotriene B4 receptor; test: Antagonist activity against LTB4 receptor (unknown origin) assessed as inhibition constant; type: protein assay

T1 sequence (Q15722 whole entry, looked up): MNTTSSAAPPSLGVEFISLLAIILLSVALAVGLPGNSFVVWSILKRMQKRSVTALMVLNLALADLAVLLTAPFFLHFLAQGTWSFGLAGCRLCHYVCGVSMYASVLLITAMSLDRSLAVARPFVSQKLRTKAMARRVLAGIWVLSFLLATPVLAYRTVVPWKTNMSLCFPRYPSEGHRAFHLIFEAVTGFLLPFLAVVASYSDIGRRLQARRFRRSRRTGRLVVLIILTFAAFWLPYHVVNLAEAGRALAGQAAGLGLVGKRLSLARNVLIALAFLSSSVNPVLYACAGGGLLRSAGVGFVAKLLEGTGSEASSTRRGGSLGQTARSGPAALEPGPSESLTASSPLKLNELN
T1 sequence (Q9NPC1 whole entry, looked up): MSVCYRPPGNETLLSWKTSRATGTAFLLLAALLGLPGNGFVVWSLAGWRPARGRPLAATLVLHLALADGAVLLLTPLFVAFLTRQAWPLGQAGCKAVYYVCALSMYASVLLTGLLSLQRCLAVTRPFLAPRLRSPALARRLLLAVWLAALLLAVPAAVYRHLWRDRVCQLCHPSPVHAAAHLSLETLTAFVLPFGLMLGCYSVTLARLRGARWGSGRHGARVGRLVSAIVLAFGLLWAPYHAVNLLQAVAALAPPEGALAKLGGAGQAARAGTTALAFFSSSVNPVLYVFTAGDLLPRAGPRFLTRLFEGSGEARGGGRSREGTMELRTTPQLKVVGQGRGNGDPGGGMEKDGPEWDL

Compound | inhibition ([1]; filed as antagonist) [%] | inhibition [2] [%] | IC50 [12] [nM] | further results
CC(OC/C=C/c1ccccc1)C1=C(C(=O)O)Oc2ccc(OCc3ccccc3)cc2O1 (configuration not stated) | 92 | 20 | – | –
COc1ccc2c(c1)c(CC(=O)O)c(C)n2C(=O)c1ccc(Cl)cc1 [INDOMETHACIN] | – | – | – | Activity [3]: 1.65 mL; Activity [4]: 1.85 mL; Activity [5]: 2.06 mL; Activity [6]: 11.1%; Activity [7]: 24.64%; Activity [8]: 40.19%; Activity [9]: 45%; Activity [10]: 45.3%; Activity [11]: 31.6%
CC(OC/C=C/c1ccccc1)C1=C(C(=O)O)Oc2cc(OCc3ccccc3)ccc2O1 (configuration not stated) | 82 | 0 | – | –
CC(OCc1ccccc1)C1=C(C(=O)O)Oc2cc(OCc3ccccc3)ccc2O1 (configuration not stated) | 82 | 0 | – | –
O=C(O)C1=C(C(=O)N2CCC(Cc3ccccc3)CC2)Oc2cc(OCc3ccccc3)ccc2O1 | 78 | 27 | – | –
O=C(O)C1=C(C(=O)N2CCC(c3ccccc3)CC2)Oc2cc(OCc3ccccc3)ccc2O1 | – | 12 | – | inhibition [1]: 33%
CCCc1c(OCCCOc2ccc(C(=O)NC)c(OC)c2CC2CC2)ccc2c1O[C@H](CCC(=O)O)CC2 | – | – | – | Ki [22]: 1.3 nM
O=C(O)C1=C(C(=O)N2CCC(Cc3ccccc3)CC2)Oc2cccc(OCc3ccccc3)c2O1 | 62 | 0 | 5610 | –
O=C(O)C1=C(C(=O)N2CCC(Cc3ccccc3)CC2)Oc2ccc(OCc3ccccc3)cc2O1 | 98 | 20 | 477 | –
CCCc1ccccc1OCCCCCCc1cccc(OCCCCC(=O)O)c1CCC(=O)O | – | – | – | Ki [22]: 1 nM
CCN(CC)C(=O)C1=C(C(C)OCc2ccccc2)Oc2cc(OCc3ccccc3)ccc2O1 (configuration not stated) | 74 | < 10 | – | –
CC(OCc1ccccc1)C1=C(C(=O)O)Oc2ccc(OCc3ccccc3)cc2O1 (configuration not stated) | 73 | < 10 | – | –
O=C(O)C1=C(C(=O)N2CCC(c3ccccc3)CC2)Oc2ccc(OCc3ccccc3)cc2O1 | – | – | – | inhibition [1]: 29%
CC1(CCOCc2ccccc2)OC(=O)C2=C1Oc1cc(OCc3ccccc3)ccc1O2 (configuration not stated) | – | < 10 | – | inhibition [1]: 13%

Now from value to compound, other results behind:

inhibition ([1]; filed as antagonist) [%] | inhibition [2] [%] | IC50 [12] [nM] | Compound | further results
40 | 0 | > 10000 | CN(CCc1ccccc1)C(=O)C1=COc2ccc(OCc3ccccc3)cc2O1 | –
99 | 38 | 288 | CN(CCc1ccccc1)C(=O)C1=C(C(=O)O)Oc2cc(OCc3ccccc3)ccc2O1 | Activity [13]: 1.66 mL; Activity [14]: 2.04 mL; Activity [15]: 2.42 mL; Activity [16]: 12.17%; Activity [17]: 39.05%; Activity [18]: 63.63%; Activity [19]: 39.7%; Activity [20]: 16.2%; Activity [21]: 8.3%
74 | 0 | – | CC(OCc1ccc2ccccc2c1)C1=C(C(=O)O)Oc2ccc(OCc3ccccc3)cc2O1 (configuration not stated) | –
95 | 25 | 439 | CN(CCc1ccccc1)C(=O)C1=C(C(=O)O)Oc2ccc(OCc3ccccc3)cc2O1 | –
94 | 4.8 | 2700 | CN(CCc1ccccc1)C(=O)C1=C(C(=O)O)Oc2c(OCc3ccccc3)cccc2O1 | –
97 | 18 | 710 | CN(CCc1ccccc1)C(=O)C1=C(C(=O)O)Oc2cc(OCc3ccc4ccccc4c3)ccc2O1 | –
– | 6 | – | CN(CCc1ccccc1)C(=O)C1=C(C(=O)O)Oc2cccc(OCc3ccccc3)c2O1 | inhibition [1]: 39%
